Measurements from article PMC9394549 (Nature, 2022).

Target: T1, GAT2 (Homo sapiens, UniProt Q9NSD5)
T1 sequence (Q9NSD5 1-602): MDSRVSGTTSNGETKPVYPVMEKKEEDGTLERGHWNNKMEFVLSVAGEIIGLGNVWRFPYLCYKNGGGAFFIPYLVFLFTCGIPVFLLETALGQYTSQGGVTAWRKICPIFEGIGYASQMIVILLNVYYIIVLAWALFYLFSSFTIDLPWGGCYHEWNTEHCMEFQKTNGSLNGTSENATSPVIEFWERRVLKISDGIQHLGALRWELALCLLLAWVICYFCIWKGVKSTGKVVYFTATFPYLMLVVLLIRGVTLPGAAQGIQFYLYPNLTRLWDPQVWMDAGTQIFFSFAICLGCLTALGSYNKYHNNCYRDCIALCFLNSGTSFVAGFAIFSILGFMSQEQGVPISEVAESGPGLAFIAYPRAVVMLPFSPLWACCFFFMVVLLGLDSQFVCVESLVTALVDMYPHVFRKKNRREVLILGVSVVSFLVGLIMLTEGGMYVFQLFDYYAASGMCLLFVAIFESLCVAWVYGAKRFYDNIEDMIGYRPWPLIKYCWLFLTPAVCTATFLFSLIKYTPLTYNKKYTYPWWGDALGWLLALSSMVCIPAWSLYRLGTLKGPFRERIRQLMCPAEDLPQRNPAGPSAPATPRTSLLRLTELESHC
Experiment: [3H]-GABA uptake in transfected HEK293S GnTI− cells
Format: cell-based

NCCCC(=O)O [GABA]
[3H]-GABA uptake in transfected HEK293S GnTI- cells: Specific uptake of [^3H]-GABA in HEK293S cells expressing wild-type GAT1, wild-type GAT2
